In patent publication US20260256790A1, “DEBIO-0123 IN COMBINATION WITH TEMOZOLOMIDE AND RADIOTHERAPY FOR USE IN TREATING GLIOMA” (Debiopharm International S.A., priority 2023, published 2026):
Read-outs that look alike come from different tables or passages of the source.

Columns and labels:
[1] = Plasma and brain concentrations (PK) in healthy mice after oral dosing; type: in vivo, Nu/Nu mice; conditions: 30 mg/kg, oral; for Kp / Cmax / AUC(0-inf) / AUC(0-t): male, Nu/Nu, mouse, po; for Kp: brain/plasma; for Cmax / AUC(0-inf) / AUC(0-t): plasma; for AUC(0-inf): read-out: AUCInf, plasma; for AUC(0-t): read-out: AUCLast, plasma
Method: Healthy male Nu/Nu mice were treated orally with either (i) a single dose of 30 mg/kg Compound of formula (I) ([…], 3 mice per time-point), (ii) 30 mg/kg of Compound of formula (I) given once a day for four consecutive days (27 mice in total, 3 mice per time-point), (iii) 30 mg/kg of AZD-1775 (adavosertib, purchased from Combi-Blocks, San Diego, USA) given twice a day for three consecutive days and once on day four (27 mice in total, 3 mice per time-point), (iv) or 80 mg/kg of Zn-c3 (purchased from EOS Med Chem, Jina City, China) given once a day for four consecutive days (27 mice in total, 3 mice per time-point). The doses used for each compound have previously been reported as active dose levels. Compound of formula (I) was formulated as a suspension in 0.5% methylcellulose with 1% Tween 80 and administered at a concentration of 3.0 mg/mL. […] The dosing volume of all formulations was 10 mL/kg. At designated time-points the mice were euthanized by carbon dioxide inhalation, blood samples were collected by cardiac puncture into K2EDTA containing tubes. The tubes were inverted several times, placed on ice and centrifuged within 30 min of collection (4° C. for 5 min at 6000 rpm) to obtain plasma. The plasma samples were snap frozen in dry ice and stored at −80° C. until analysis. The brain was collected, weighed and snap frozen in dry ice until further analysis. To obtain brain homogenates, firstly water was added to each brain (brain weight:water volume=1:4) then the brain was homogenized with a H-speed dispersator (time procedure: homogenizing for 10 s and interval of 10 s per time, total 3-5 times; cleaning procedure for dispersator: Water-Methanol-Ethanol-Water, 10 s each). The brain homogenate samples were transferred to individual tubes and stored at −80° C. prior to analysis. The mouse plasma and brain samples were analysed as follows. For each analytical batch of plasma and brain samples, the standard and quality control (QC) samples were freshly prepared in blank male Nu/Nu mouse plasma (with K2EDTA anticoagulant) and brain homogenate. To an aliquot of each standard, QC, control blank and study samples, internal standard (^13CD6-Compound of formula (I) for Compound of formula (I), terfenadine for AZD-1775 and Zn-c3) in methanol/acetonitrile (1:1, v/v) was added. The samples were mixed for 1 minute and centrifuged at 4000 rpm at 4° C. for 15 minutes. Supernatants were transferred and diluted in MeOH/water (1:1, v/v, with 0.1% FA) prior to LC-MS/MS injection. Chromatographic separation was achieved on an Shimadzu LC-20AD using a Kinetex 2.6μ C18 100A column (50 mm*3.00 mm) for Compound of formula (I) and AZD-1775 samples and a ACE 5 C4 column (50 mm*2.1 mm) for Zn-c3 samples with gradient elution using the following conditions: flow rate: 0.7 mL/min; run time: 3.0 min; mobile phase: A: 5 mM NH4OAc (0.1% FA), B: Acetonitrile (0.1% FA). Detection was accomplished with an AB Sciex 5500 utilizing electrospray MS/MS in positive ion multiple reaction monitoring mode (MRM). The MRM channels were 511.29/98 for Compound of formula (I), 501.47/442.20 for AZD-1775 and 527.36/468.10 for Zn-c3. The MRM channels of internal standard were 518.17/102.10 (^13CD6-Compound of formula (I)) for Compound of formula (I), 472.40/436.40 (terfenadine) for AZD-1775 and Zn-c3. The measured plasma and brain concentrations at each time-point, the nominal sample collection time, and intended dosages were used for pharmacokinetic analysis. The PK parameters of all study compounds were determined by non-compartmental analysis using WinNonlin Version 8.0 (Pharsight).

[2] = Free fraction in rat plasma (separate experiment, not shown); type: in vitro ADME
LN18 GBM cell line = test: Colony formation with radiotherapy, LN18; type: cell-based; conditions: 0.1 μM to 5.0 μM, irradiated at 1, 2 and 4 Gy, p<0.0001
Method: (§1) GBM tumor cells (T98G, LN18, SNB-19 and U251) were grown as an adherent monolayer at 37° C. in a humidified atmosphere (5% CO2, 95% air). For experimental use, tumor cells were detached from culture flasks by a 5-minute treatment with trypsin-versene, in Hanks' medium without calcium or magnesium and neutralized by addition of complete culture medium. Cells were counted and viability assessed using a 0.25% trypan blue exclusion assay. All cell lines were appropriately seeded following the conditions for monolayer colony formation in 6-well plates (Ref #152795, Nunc, Dutscher) in 1.9 ml of cell culture medium, at 3 densities for evaluation of a proclonogenic effect. […]
(§2) Treatments were performed at 24 hours (D1) after seeding by addition of ×20 concentrated compound or vehicle solutions, to obtain final concentrations of 0.1 μM to 5.0 μM of Compound of formula (I) [referred to as CoF (I) in FIG. 3]. […] After 14 days of incubation, colonies were counted after being stained through incubation with 500 μl of a solution of water containing 0.05% (w/v) of methylene blue (Ref. M4159, Sigma) for 2 hours. Colonies were counted using a colony counter pen (Ref #045855, Dutscher, Brumath, France). The Surviving Fraction was calculated for each condition using the equations described below and plotted on a semi-logarithmic graph using the Linear-Quadratic model. […]

U251 GBM cell line = test: Colony formation with radiotherapy, U251; type: cell-based; conditions: 0.1 μM to 5.0 μM, irradiated at 1, 2 and 4 Gy, p=0.6
Method: as §1, §2

With Cc1cc(Nc2ncc3c(n2)N(C)CN(c2c(Cl)cccc2Cl)C3=O)ccc1C1CCN(C)CC1 [Compound of formula (I)] the “AUCInf, brain” value ([1]; qd for four days, day 4) was 31763 ng·h/g, the “AUCLast, brain” value ([1]; qd for four days, day 4) was 31610 ng·h/g and the “Cmax, brain” value ([1]; qd for four days, day 4) was 1963 ng/g. The “AUCInf, brain” value ([1]; single dose, day 1) was 37471 ng·h/g, the “AUCLast, brain” value ([1]; single dose, day 1) was 37368 ng·h/g and the “Cmax, brain” value ([1]; single dose, day 1) was 3557 ng/g. For the same molecule, the Kp ([1]; qd for four days, day 4, read-out: Brain to plasma ratio based on AUCInf) was 0.489, the Kp ([1]; qd for four days, day 4, read-out: Brain to plasma ratio based on AUCLast) was 0.488 and the Kp ([1]; qd for four days, day 4, read-out: Brain to plasma ratio based on Cmax) was 0.498. For the same molecule, the Kp ([1]; single dose, day 1, read-out: Brain to plasma ratio based on AUCInf) was 0.44, the Kp ([1]; single dose, day 1, read-out: Brain to plasma ratio based on AUCLast) was 0.439 and the Kp ([1]; single dose, day 1, read-out: Brain to plasma ratio based on Cmax) was 0.505. It also gave a Cmax ([1]; qd for four days, day 4) of 3940 ng/mL, an AUC(0-inf) ([1]; qd for four days, day 4) of 65000 ng·h/mL and an AUC(0-t) ([1]; qd for four days, day 4) of 64800 ng·h/mL. For the same molecule, the Cmax ([1]; single dose, day 1) was 7040 ng/mL, the AUC(0-inf) ([1]; single dose, day 1) was 85200 ng·h/mL and the AUC(0-t) ([1]; single dose, day 1) was 85100 ng·h/mL. The fraction unbound [2] was 0.078, the “Effect on radiotherapy (surviving fraction, colony formation)” value (LN18 GBM cell line) was “significantly increased effect of radiotherapy” and the “Effect on radiotherapy (surviving fraction, colony formation)” value (U251 GBM cell line) was “not significant”.
